Patent EP0585371B1, “AROMATIC OLIGOMERIC COMPOUNDS USEFUL AS MIMICS OF BIOACTIVE MACROMOLECULES” (RHONE-POULENC RORER INTERNATIONAL (HOLDINGS) INC., priority 1991, dated 1992)

Experiments:
[1] = target: T1, ESb mouse lymphoma heparanase (Mus musculus, UniProt Q6YGZ1); experiment: Inhibition of heparanase activity (degradation of labeled ECM heparan sulfate); format: biochemical; details: 24 hours incubation with labeled ECM
T1 construct: endogenous in cells; host or cells: ESb mouse lymphoma cells
T1 sequence (Q6YGZ1 28-535): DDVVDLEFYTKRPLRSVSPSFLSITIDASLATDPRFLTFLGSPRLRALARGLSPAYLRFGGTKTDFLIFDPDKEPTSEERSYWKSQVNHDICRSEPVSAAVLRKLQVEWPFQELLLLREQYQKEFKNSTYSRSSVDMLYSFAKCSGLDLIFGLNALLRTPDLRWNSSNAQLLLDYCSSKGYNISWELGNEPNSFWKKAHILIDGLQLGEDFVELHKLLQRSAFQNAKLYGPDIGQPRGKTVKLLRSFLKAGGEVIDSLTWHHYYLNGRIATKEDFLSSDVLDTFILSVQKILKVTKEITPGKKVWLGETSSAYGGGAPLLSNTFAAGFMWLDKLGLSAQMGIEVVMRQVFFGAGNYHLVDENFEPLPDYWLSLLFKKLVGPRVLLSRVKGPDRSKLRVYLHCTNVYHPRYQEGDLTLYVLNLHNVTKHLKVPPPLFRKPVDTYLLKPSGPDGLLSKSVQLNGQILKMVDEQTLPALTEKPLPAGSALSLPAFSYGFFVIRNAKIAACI
Description: Heparanase is an endoglucuronidase capable of degrading […] (HS) at specific intrachain sites.
The ability of compounds of the present invention to inhibit lymphomacell derived heparanase is tested in the assay system described by Vlodavsky et al., Cancer Research 43, 2704-2711 (1983). […] labeled ECM is incubated for 24 hours with ESb mouse lymphoma heparanase in the presence of various concentrations of the oligomers tested. Degradation of the HS is followed by gel filtration of the supematants. Heparanase activity is expressed as the total amount of labeled low-molecular-weight fragments released from the EMC substrate.

[2] = test system: human fixed thrombin activated platelets; experiment: Platelet aggregation inhibition (fibrinogen-induced); format: cell-based; details: human fibrinogen added
Description: The method for measuring platelet aggregation inhibition is essentially that of Ruggeri, et al., Proc. Natl. Acad. Sci. USA, 83, 5708-5712 (1986), using formalin-fixed platelets as prepared by Plow, et al., Proc. Natl. Acad. Sci. USA, 79, 3711-3715 (1982). A given amount of the compound of the present invention or other compound to be tested (10 to 100 µl of a 1 mg/ml solution) is incubated at 37°C with 400 µl of human fixed thrombin activated platelets for 2 minutes. 12.5 µl of human fibrinogen solution is added and aggregation is monitored using a platelet aggregation profiler (Model PAP-4). Controls consist of fibrinogen added to incubated platelets and the resulting aggregation is considered as 100%. Percent inhibition in the presence of a given concentration of test compound versus concentration of the compound is plotted and the concentration required to give 50% inhibition (IC50) is determined.

- % Inhibition of Heparanase Activity (5µg/ml) [1]: 2%
- Platelet Aggregation IC50 [2]: >1000 mg/L
Structure (SMILES): Cc1cc(O)c(Cc2cc(O)c(Cc3cc(O)c(Cc4cc(O)c(Cc5cc(O)c(Cc6cc(O)c(Cc7cc(O)c(Cc8cc(O)ccc8CCC(=O)O)cc7CCC(=O)O)cc6CCC(=O)O)cc5CCC(=O)O)cc4CCC(=O)O)cc3CCC(=O)O)cc2CCC(=O)O)cc1CCC(=O)O [Ex 4, 5-[4-[4-[4-[4-[4-[4-[[2-(2-carboxyethyl)-5-hydroxy]benzyl]-[2-(2-carboxyethyl)-5-hydroxy]benzyl]-[2-(2-carboxyethyl)-5-hydroxy]benzyl]-[2-(2-carboxyethyl)-5-hydroxy]benzyl]-[2-(2-carboxyethyl)-5-hydroxy]benzyl]-[2-(2-carboxyethyl)-5-hydroxy]benzyl]-[2-(2-carboxyethyl)-5-hydroxy]benzyl]-4-hydroxy-2-methylhydrocinnamic acid]
